Test results published in ChEMBL document CHEMBL1121593, “Synthesis of 2,4-disubstituted 6-methoxy-8-aminoquinoline analogues as potential antiparasitics” (J Med Chem, 1980).

Experiments:
[1] = system: Cricetinae gen. sp.; assay: (§1) G index is the relative activity to that of glucantime was measured on Leishmania donovani in hamsters.; assay type: functional, hamster
[2] = system: Plasmodium cynomolgi; assay: Radical curative activity in presence of chloroquine against Plasmodium cynomolgi infected Rhesus monkey at 1.3 mg/kg; assay type: functional
[3] = system: Mus musculus; assay: Mean survival time which expresses the antimalarial activity of compound was measured against Plasmodium berghei in mice (Mus musculus) at 80 mg/kg dose; assay type: functional
[4] = system: Mus musculus; assay: (§2) Mean survival time which expresses the antimalarial activity of compound was measured against Plasmodium berghei in mice (Mus musculus) at 640 mg/kg dose; assay type: functional
[5] = system: Mus musculus; assay: (§3) Mean survival time which expresses the antimalarial activity of compound was measured against Plasmodium berghei in mice (Mus musculus) at 160 mg/kg dose; assay type: functional
[6] = system: Mus musculus; assay: Mean survival time which expresses the antimalarial activity of compound was measured against Plasmodium berghei in mice (Mus musculus) at 20 mg/kg dose; assay type: functional
[7] = system: Mus musculus; assay: (§4) Mean survival time which expresses the antimalarial activity of compound was measured against Plasmodium berghei in mice (Mus musculus) at 320 mg/kg dose; assay type: functional
[8] = system: Mus musculus; assay: Mean survival time which expresses the antimalarial activity of compound was measured against Plasmodium berghei in mice (Mus musculus) at 40 mg/kg dose; assay type: functional
[9] = system: Mus musculus; assay: as §3; assay type: ADME, organism-based; parameters: dose 160 mg/kg; conditions: in vivo
[10] = system: Mus musculus; assay: as §4; assay type: ADME, organism-based; parameters: dose 320 mg/kg; conditions: in vivo
[11] = system: Mus musculus; assay: as §2; assay type: ADME, organism-based; parameters: dose 640 mg/kg; conditions: in vivo
[12] = system: Mus musculus; assay: Mean survival time which expresses the antimalarial activity of compound was measured against Plasmodium berghei in mice (Mus musculus) at […] mg/kg dose; assay type: functional
[13] = system: Mus musculus; assay: Mean survival time which expresses the antimalarial activity of compound was measured against Plasmodium berghei in mice (Mus musculus) a 160 mg/kg dose; assay type: functional
[14] = system: Cricetinae gen. sp.; assay: as §1; assay type: functional, Cricetulus griseus

Row | Structure (SMILES) | Relative activity [1] | Delta MST [4] | Delta MST [5] | Delta MST [6] | Delta MST [8] | also measured
1 | CCc1cc(C)c2cc(OC)cc(NC(C)CCCN)c2n1 (centres undefined) | 8.99 |  |  |  |  | Cured [2]: 90%
2 | CCc1cc(C)nc2c(NC(C)CCCN)cc(OC)cc12 (centres undefined) |  | 10.3 days | 5.1 days | 1.7 days | 2.3 days | Delta MST [3]: 3.7 days; Delta MST [7]: 7.7 days
3 | CCc1cc(C)c2cc(OC)cc(NCCCCCCN(CC)CC)c2n1 | 130 | 0.7 days | 0.3 days |  | 0.3 days | 
4 | COc1cc(NC(C)CCCN)c2ncccc2c1 (centres undefined) [PRIMAQUINE] | 2.1 |  |  | 4 days | 5 days | Deaths [9]: 2; Deaths [10]: 5; Deaths [11]: 5; Delta MST [12]: 9.4 days
5 | C=Cc1cc(C)c2cc(OC)cc(NC(C)CCCN)c2n1 (centres undefined) |  | 6.2 days |  | 0 days | 0 days | Delta MST [3]: 0.6 days; Delta MST [13]: 0.4 days; Delta MST [7]: 2.2 days
6 | CCN(CC)CCCCCCNc1cc(OC)cc2c(C)cc(CCBr)nc12 |  |  | 0 days |  | 0.3 days | Relative activity [14]: 2.6; Deaths [9]: 5; Deaths [11]: 5
7 | CCc1cc(C)nc2c(NCCCCCCN(CC)CC)cc(OC)cc12 | 29.2 | 4.9 days | 2.7 days |  | 1.3 days | 
